In patent US5190956A, “Certain N-substituted 3-oximino-2,4-dioxoquinolin-2,4-(1H)diones useful for treating viral infections” (Schering Corporation, priority 1990, dated 1993):

Tests used:
HSV-2, strain MS = test: In vivo anti-HSV efficacy, prophylactic guinea pig model of HSV infection; settings: 60 mg per kg subcutaneously, T.I.D., 10 days, first dose 24 hrs before infection
Experimental: The in vivo assessment of anti-HSV efficacy was determined in the prophylactic guinea pig model of HSV infection described by Stansberry et al (1982). Dosing of guinea pigs was comprised of an initial treatment with test compound given 24 hrs prior to virus infection and subsequent administration of the compound every eight hours (T.I.D.) for a total of 10 days. Test compounds were administered subcutaneously in 0.5% buffered methyl cellulose at a dose of 60 mg per kg body weight of the animal. Animals were monitored daily for the developement of genital lesions and neurological symptomology, both of which were recorded and compared to the results obtained with parallel groups which received placebo or acyclovir treatment. Efficacy was evaluated for each compound by scoring the ability of the compound to ameliorate genital lesions produced by infection with HSV-2, strain MS, expressed as Maximum Lesion scores (MLS) on a scale of 1 (least lesions) to 4 (severe lesions).

HSV-2 (strain MS) = test: HSV-β-GAL assay (transient expression of beta galactosidase in transfected HeLa cells superinfected with HSV-2); format: cell-based; settings: HeLa cells transfected with pON 245^ori-, moi=5 pfu/cell, more than one number = additional tests; for IC50: Human alphaherpesvirus 2, HeLa, 24 h, read-out: ANTI-HSV ACTIVITY HSV-β-GAL ASSAY IC50
Experimental: HeLa and Vero cell cultures were maintained in Eagles Minimal Essential Medium which was supplemented with glutamine, penicillin, streptomycin and 10% fetal calf serum (10% EMEM). Stock cultures of HSV-2 (strain MS available from ATCC VR-540) were grown in and harvested from Vero cells. Viral stocks were titered in Vero cells according to established procedures.
Plasmid pON 245^ori- contains the promoter of the HSV-1 thymidine kinase (tk) gene located immediately 5' of the E. coli lac Z gene. In this arrangement, the tk promoter controls transcription from the bacterial gene in transient expression assays. Additionally, an SV40 polyadenylation signal is present at the 3' end of the lac Z gene to allow for the efficient translation of the mRNA in eucaryotic cells. The expression of beta galactosidase in a transient assay using pON 245^ori- is dependent upon superinfection of the transfected cells with HSV. […] For example, see U.S. application Ser. No. 07/435,491 filed Sep. 5, 1989, the disclosure of which is incorporated herein by reference thereto.
HeLa cells were seeded into 96 well microtiter plates and allowed to grow to 80% confluency (approximately 35000 cells/well). One half microgram of plasmid pON 245^ori- DNA was introduced into the cells of each well by the […] precipitation technique (Grahman and Van der Eb, 1973). Four to six hours later, the cells were rinsed with Hank's Balanced Salt Solution (HBSS), overlaid with 10% EMEM and incubated at 37° C. At 24 hrs post-transfection, cells were rinsed, overlaid with 10% EMEM again and re-incubated at 37° C. At 48 hrs. post-transfection, cells were rinsed and overlaid with either EMEM containing 2% fetal calf serum (2% EMEM), 2% EMEM containing HSV-2 (strain MS, Multiplicity of Infection [moi]=5 pfu/cell) or 2% EMEM containing HSV-2 and the appropriate concentration of the compound to be tested. Twenty-four hrs later, the cells were harvested and assayed for beta galactosidase activity as described below.
All determinations of beta galactosidase activity were performed in 96 well microtiter plates. The intracellar level of beta galactosidase activity in each well was determined from cell lysates of the monolayer cultures. Aliquots were assayed by incubation in the presence of beta galactosidase substrate, 4-methylumbelliferyl-β-D-galactoside (MUG, 125 ug/ml, Sigma), for 2 hrs. The generation of fluorescent product was quantified on a Microfluor microfluorimeter (Dynatech) after addition of 0.1M glycine, pH 10.3 (Spaete and Mocarski, 1985). The inhibitory activity of a compound was plotted versus the concentration and an IC50 value (the concentration of compound required to reduce beta glactosidase expression by 50%) was obtained for each compound tested.

[1] = Cytotoxicity, 3H-LEU assay (inhibition of HeLa cell translation); format: cell-based; settings: human; HeLa cells, tritiated leucine incorporation after overnight/24 hrs treatment; read-out: CYTOTOXICITY 3H-LEU ASSAY IC50
Experimental: HeLa cells were treated with inhibitory compound for 24 hrs, after which levels of translational activity were assayed.
For assay of translational activity, HeLa cultures were grown to 80% confluency in 96 well microtiter plates, treated with appropriate concentrations of compound in 2% EMEM during an overnight incubation at 37° C., then rinsed with HBSS and overlaid with […] of 2% EMEM containing 8 uCi of tritiated leucine (^3 H-LEU, 141 Cu/mMol, Amersham Corp., Arlington Heights Ill.). After a 1 hr incubation at 36.5° C., the cells were rinsed twice with phosphate buffered saline (PBS) and lysed in 400 ul/well of 1×PBS, 0.5% sodium dodecyl sulphate (SDS). After a 10 min incubation at 36.5° C., the contents of the well were transferred to a well in a Millititer HA microfiltration plate (Millipore Corp., Bedford, Mass.). The TCA insoluble proteins were precipitated onto the filter disc by a 10 min fixation with 5% TCA, followed by filtration under vacuum and three 10 minute rinse with 95% ethanol. The filters were dried at room temperature, cut from the milltitier plate and transferred to scintillation vials. TCA precipitable counts were assayed in 5 ml of Scintisol (Isolab, Akron, Ohio). The inhibitory activity of a compound was plotted versus the concentration and an IC50 value (that concentration of the compound required to decrease cellular translational activity by 50%) was derived for each compound.

ANTI-HSV ACTIVITY HSV-β-GAL ASSAY IC50 (HSV-2 (strain MS); 24 hrs) [µg/mL] | IC50 (HSV-2 (strain MS)) [µg/mL] | SMILES | In-vivo anti-HSV activity (genital lesions, Maximum Lesion score) (HSV-2, strain MS) | CC50 at 24 h [1] [µg/mL]
2.5 | < 3 | CCCCCCCN1C(=O)C(=NO)C(=O)c2ccccc21 [Formula 1.04] | inactive | 37
 | 7 | O=C1C(=NO)C(=O)N(Cc2ccccc2)c2ccccc21 [Formula 1.03] |  | 40
 | 7 | CN1C(=O)C(=NO)C(=O)c2ccccc21 [Formula 1.02] |  | 27
